# Results from ChEMBL document CHEMBL5512613, “Design and synthesis of novel 3-amino-5-phenylpyrazole derivatives as tubulin polymerization inhibitors targeting the colchicine-binding site” (Eur J Med Chem, 2024).
# Activity calls are given as the source filed them. The calls are words filed in the database; no cut-off is given here.
# How the values were obtained:
# MCF7 [1] = test: Antiproliferative activity against human MCF7 cells assessed as inhibition of cell growth incubated for 48 hrs by MTT assay; format: functional, cell-based; conditions: MCF7, 48 h
# MDA-MB-231 = test: Antiproliferative activity against human MDA-MB-231 cells assessed as inhibition of cell growth incubated for 48 hrs by MTT assay; format: functional, cell-based; conditions: MDA-MB-231, 48 h
# HeLa = test: Antiproliferative activity against human HeLa cells assessed as inhibition of cell growth incubated for 48 hrs by MTT assay; format: functional, cell-based
# HT-29 = test: Antiproliferative activity against human HT-29 cells assessed as inhibition of cell growth incubated for 48 hrs by MTT assay; format: functional, cell-based; conditions: HT-29, 48 h
# A549 = test: Antiproliferative activity against human A549 cells assessed as inhibition of cell growth incubated for 48 hrs by MTT assay; format: functional, cell-based; conditions: A549, 48 h
# [2] = Cytotoxicity against human L02 cells assessed as inhibition of cell growth incubated for 48 hrs by MTT assay; format: toxicity, cell-based
# MCF7 [3] = test: Inhibition of colony formation in human MCF7 cells at 10 nM incubated for 2 weeks in 5% CO2 at 37 degC by crystal violet staining based analysis; format: functional, cell-based
# MCF7 [4] = test: Antitumor activity against human MCF7 cells xenografted in BALB/c mouse assessed as inhibition of tumor growth by measuring decrease in tumor weight at 10 mg/kg, ip administered every 3 days for 21 days; format: functional; conditions: MCF7, 504 h, time 21 day, read-out: TGI
# Tubulin (Homo sapiens) = Tubulin (Homo sapiens) (UniProt P68371+Q9H4B7+P0DPH7+P68366+Q13509+Q71U36+P04350+Q3ZCM7+P07437+P68363+Q9BQE3+Q6PEY2+Q13885+Q9BVA1+Q9BUF5); test: Stabilization of tubulin in human MCF7 cells assessed as stable and fascicled microtubules at 25 nM incubated for 8 hrs by DAPI staining based immunofluorescence assay; format: cell-based
SMILES,IC50 (MCF7 [1]),IC50 (MDA-MB-231),IC50 (HeLa),IC50 (HT-29),IC50 (A549),IC50 at 48 h [2],inhibition (MCF7 [3]),inhibition in vivo at 10 mg/kg (MCF7 [4]),Activity (Tubulin (Homo sapiens))
COc1ccc(C(=O)n2nc(N)cc2-c2ccc(Br)cc2)cc1OC,180 nM,1290 nM,1540 nM,1080 nM,2680 nM,1120 nM,–,–,–
COc1ccc(-c2cc(N)nn2C(=O)c2cc(OC)c(OC)c(OC)c2)cc1,310 nM,840 nM,650 nM,400 nM,350 nM,> 10000 nM,–,–,–
CC(=O)O[C@H]1C(=O)[C@@]2(C)[C@H]([C@H](OC(=O)c3ccccc3)[C@]3(O)C[C@H](OC(=O)[C@H](O)[C@@H](NC(=O)c4ccccc4)c4ccccc4)C(C)=C1C3(C)C)[C@]1(OC(C)=O)CO[C@@H]1C[C@@H]2O [PACLITAXEL],220 nM,190 nM,20 nM,70 nM,–,1730 nM,Active,73.5%,Active
Cc1ccc(-c2cc(N)nn2C(=O)c2ccc3c(c2)OCO3)cc1,120 nM,170 nM,40 nM,1920 nM,2150 nM,3900 nM,–,–,–
COc1cc(C(=O)n2nc(N)cc2-c2cccc(C)c2)cc(OC)c1OC,80 nM,1270 nM,200 nM,1060 nM,770 nM,2810 nM,–,–,–
COc1cccc(-c2cc(N)nn2C(=O)c2ccc(OC)c(OC)c2)c1,1200 nM,3090 nM,> 5000 nM,> 5000 nM,2970 nM,2610 nM,–,–,–
COc1cccc(-c2cc(N)nn2C(=O)c2cc(OC)c(OC)c(OC)c2)c1,400 nM,1290 nM,2040 nM,160 nM,890 nM,5680 nM,–,–,–
COc1ccc(C(=O)n2nc(N)cc2-c2ccc(Cl)cc2)cc1OC,1540 nM,> 5000 nM,2860 nM,3910 nM,1780 nM,4660 nM,–,–,–
COc1ccc(/C=C\c2cc(OC)c(OC)c(OC)c2)cc1O [COMBRETASTATIN A4],–,110 nM,90 nM,380 nM,280 nM,3200 nM,Active,–,–
COc1cc(C(=O)n2nc(N)cc2-c2cccc(F)c2)cc(OC)c1OC,120 nM,330 nM,320 nM,190 nM,2890 nM,4170 nM,–,–,–
COc1ccc(-c2cc(N)nn2C(=O)c2ccc3c(c2)OCO3)cc1OC,1190 nM,2160 nM,4930 nM,3570 nM,2770 nM,2090 nM,–,–,–
COc1ccc(C(=O)n2nc(N)cc2-c2cccc(Cl)c2)cc1OC,> 5000 nM,> 5000 nM,> 5000 nM,> 5000 nM,> 5000 nM,> 10000 nM,–,–,–
COc1ccc(C(=O)n2nc(N)cc2-c2ccc(C)cc2)cc1OC,1360 nM,3080 nM,4850 nM,1850 nM,2530 nM,5580 nM,–,–,–
COc1cc(C(=O)n2nc(N)cc2-c2ccc(Br)cc2)cc(OC)c1OC,2080 nM,3020 nM,620 nM,4610 nM,2430 nM,2680 nM,–,–,–
Nc1cc(-c2ccc(F)cc2)n(C(=O)c2ccc3c(c2)OCO3)n1,4440 nM,1970 nM,> 5000 nM,> 5000 nM,3840 nM,6060 nM,–,–,–
COc1ccc(C(=O)n2nc(N)cc2-c2ccc(F)cc2)cc1OC,> 5000 nM,> 5000 nM,> 5000 nM,> 5000 nM,> 5000 nM,> 10000 nM,–,–,–
COc1cc(C(=O)n2nc(N)cc2-c2cccc(Br)c2)cc(OC)c1OC,190 nM,540 nM,440 nM,280 nM,2180 nM,> 10000 nM,–,–,–
COc1cccc(-c2cc(N)nn2C(=O)c2ccc3c(c2)OCO3)c1,> 5000 nM,> 5000 nM,> 5000 nM,> 5000 nM,> 5000 nM,> 10000 nM,–,–,–
COc1ccc(C(=O)n2nc(N)cc2-c2ccc(OC)c(OC)c2)cc1OC,> 5000 nM,> 5000 nM,> 5000 nM,> 5000 nM,> 5000 nM,> 10000 nM,–,–,–
COc1cc(C(=O)n2nc(N)cc2-c2ccc(F)cc2)cc(OC)c1OC,150 nM,390 nM,130 nM,60 nM,2530 nM,6240 nM,–,–,–
COc1cc(C(=O)n2nc(N)cc2-c2cccc(Cl)c2)cc(OC)c1OC,110 nM,–,140 nM,850 nM,5180 nM,1640 nM,–,–,–
COc1ccc(-c2cc(N)nn2C(=O)c2cc(OC)c(OC)c(OC)c2)cc1OC,170 nM,1570 nM,560 nM,1770 nM,780 nM,4100 nM,–,–,–
COc1cc(C(=O)n2nc(N)cc2-c2ccc(Cl)cc2)cc(OC)c1OC,2770 nM,2980 nM,2550 nM,4350 nM,1360 nM,2730 nM,–,–,–
Nc1cc(-c2ccc(Cl)cc2)n(C(=O)c2ccc3c(c2)OCO3)n1,750 nM,3870 nM,2790 nM,> 5000 nM,1680 nM,> 10000 nM,–,–,–
